Test results taken from patent US8614324B2, “Filamin A binding anti-inflammatory and analgesic” (priority 2008, dated 2013).

Experiments:
mu opiate receptor (MOR) = target: T1, mu opiate receptor (MOR) (Rattus norvegicus, UniProt P33535); assay: MOR agonist activity, [35S]GTPγS binding assay using striatal membranes; assay type: biochemical; design: MOR agonist activity, [35S]GTPγS binding to Gαo: reference not given here
T1 construct: from tissue; host or cells: striatal membrane preparation (rat striatum)
T1 sequence (P33535 whole entry): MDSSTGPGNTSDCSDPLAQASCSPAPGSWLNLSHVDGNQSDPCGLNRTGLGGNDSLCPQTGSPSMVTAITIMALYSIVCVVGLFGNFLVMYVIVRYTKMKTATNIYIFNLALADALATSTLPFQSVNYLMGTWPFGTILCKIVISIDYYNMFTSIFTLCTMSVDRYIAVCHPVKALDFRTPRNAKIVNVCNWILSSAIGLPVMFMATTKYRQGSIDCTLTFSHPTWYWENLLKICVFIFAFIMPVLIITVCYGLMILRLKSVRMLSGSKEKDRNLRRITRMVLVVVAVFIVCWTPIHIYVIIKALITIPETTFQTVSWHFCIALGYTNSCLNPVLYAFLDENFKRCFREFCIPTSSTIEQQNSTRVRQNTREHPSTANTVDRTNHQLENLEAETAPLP
Protocol: To assess the mu opiate receptor (MOR) agonist activity of positive compounds from the FLNA screening, compounds were tested in a [^35S]GTPγS binding assay using striatal membranes.
Striatal tissue was homogenized in 10 volumes of ice cold 25 mM HEPES buffer, pH 7.4, which contained 1 mM EGTA, 100 mM sucrose, 50 μg/ml leupeptin, 0.04 mM PMSF, 2 μg/ml soybean trypsin inhibitor and 0.2% 2-mercaptoethanol. The homogenates were centrifuged at 800×g for 5 minutes and the supernatants were centrifuged at 49,000×g for 20 minutes. The resulting pellets were suspended in 10 volume of reaction buffer, which contained 25 mM HEPES, pH 7.5, 100 mM NaCl, 50 μg/ml leupeptin, 2 μg/ml soybean trypsin inhibitor, 0.04 mM PMSF and 0.02% […].
The resultant striatal membrane preparation (200 μg) was admixed and maintained (incubated) at 30° C. for 5 minutes in reaction buffer as above that additionally contained 1 mM MgCl2 and 0.5 nM [^35S]GTPγS (0.1 μCi/assay, PerkinElmer Life and Analytical Sciences) in a total volume of 250 μl and continued for 5 minutes in the absence or presence of 0.1-10 μM of an assayed compound of interest. The reaction was terminated by dilution with 750 μl of ice-cold reaction buffer that contained 20 mM MgCl2 and 1 mM EGTA and immediate centrifugation at 16,000×g for 5 minutes.
The resulting pellet was solubilized by sonicating for 10 seconds in 0.5 ml of immunoprecipitation buffer containing 0.5% digitonin, 0.2% sodium cholate and 0.5% NP-40. Normal rabbit serum (1 μl) was added to 1 ml of lysate and incubated at 25° C. for 30 minutes. Nonspecific immune complexes were removed by incubation with 25 μl of protein A/G-conjugated agarose beads at 25° C. for 30 minutes followed by centrifugation at 5,000×g at 4° C. for 5 minutes. The supernatant was divided and separately incubated at 25° C. for 30 minutes with antibodies raised against Gαo proteins (1:1,000 dilutions).
The immunocomplexes so formed were collected by incubation at 25° C. for 30 minutes with 40 μl of agarose-conjugated protein A/G beads and centrifugation at 5,000×g at 4° C. for 5 minutes. The pellet was washed and suspended in buffer containing 50 mM Tris-HCl, pH 8.0, and 1% NP-40. The radioactivity in the suspension was determined by liquid scintillation spectrometry. […] DAMGO (H-Tyr-D-Ala-Gly-N-MePhe-Gly-OH; 1 or 10 μM) was used as a positive control.

[1] = tested on: IL-1β release from primary human astrocytes; assay: LPS-induced cytokine release from primary human astrocytes, IL-1β; assay type: cell-based
Protocol: (§1) The following study was undertaken to investigate whether contemplated compounds and (+)NLX affect LPS-induced release of the pro-inflammatory cytokine (IL-1β, IL-6 and TNF-α) release from primary human astrocytes. […]
(§2) Primary astrocytes culture was prepared according to the provider's instructions (Lonza). The adherent astrocytes were trypsinized by 0.25% trypsin-EDTA, then collected and sub-cultured in 12-well plate (1.2 ml/well). […] Vehicle groups were pretreated with 0.1% DMSO only. Following addition of LPS, incubation continued for 24 hours. Culture medium was used as the blank and the levels of cytokines, TNF-α, IL-6 and IL-1β in 200 μl of culture medium were determined. Each well was sampled twice.
(§3) Plates were washed 3 times with ice-cold 50 mM Tris HCl (pH 7.4) and incubated at 30° C. with 200 μl medium derived from the above mentioned conditions. Plates were washed 3 times with ice-cold 50 mM Tris HCl (pH 7.4) and incubated at 30° C. with 0.5 μg/well un-conjugated rabbit anti-anti-INF-α, -IL-6 and -IL-1β for 1 hour. After two 1 minute washes with 50 mM Tris HCl (pH 7.4), each well was incubated in 0.5 μg/well FITC-conjugated anti-rabbit IgG (human and mouse absorbed) for 1 hour at 30° C. Plates were washed twice with 200 μl ice-cold Tris HCl, pH 7.4 and the residual […] signals were determined by multimode plate reader, DTX880 (Beckman).

[2] = Mouse hot-water tail-flick test; assay type: in vivo; details: orally administered
Protocol: The mouse “tail flick” test was used to assay the relative antinociceptive activity of compositions containing a compound to be assayed. This assay was substantially that disclosed by Xie et al., 2005 J. Neurosci 25:409-416.
The mouse hot-water tail-flick test was performed by placing the distal third of the tail in a water bath maintained at 52° C. The latency until tail withdrawal from the bath was determined and compared among the treatments. A 10 second cutoff was used to avoid tissue damage. Data are converted to percentage of antinociception by the following formula: (response latency−baseline latency)/(cutoff−baseline latency)×100 to generate dose-response curves. […] Relative potency was determined as a ratio of the A50 values.
To assess tolerance to the antinociceptive effect, the compound was administered twice daily for 7 days at an A90 dose (dose that results in a 90% antinociceptive effect in the 52° C. warm-water tail-flick test), and the tail-flick test was performed daily after the a.m. dose. […] Assays were typically carried out separately using at least 32 and 56 mg/kg dosages, with some assays also separately carried out at 18 and 100 mg/kg.

[3] = tested on: TNF-α release from primary human astrocytes; assay: LPS-induced cytokine release from primary human astrocytes, TNF-α; assay type: cell-based
Protocol: as §1, §2, §3

[4] = tested on: IL-6 release from primary human astrocytes; assay: LPS-induced cytokine release from primary human astrocytes, IL-6; assay type: cell-based
Protocol: as §1, §2, §3

[5] = 0.1 μM compound, striatal membranes
[6] = 1 μM compound + BFNA (1 μM β-funaltrexamine)
[7] = 1 μM compound, striatal membranes
[8] = 10 pM compound 2 hours prior to LPS (1 μg/ml) and continued 24 hours
[9] = 1 nM compound 2 hours prior to LPS (1 μg/ml) and continued 24 hours
[10] = 100 nM compound 2 hours prior to LPS (1 μg/ml) and continued 24 hours
[11] = 100 fM compound 2 hours prior to LPS (1 μg/ml) and continued 24 hours

Compound	MOR agonist activity, [35S]GTPγS binding to Gαo (mu opiate receptor (MOR); [5]) [%]	MOR agonist activity, [35S]GTPγS binding to Gαo (mu opiate receptor (MOR); [6]) [%]	MOR agonist activity, [35S]GTPγS binding to Gαo (mu opiate receptor (MOR); [7]) [%]	further results
COc1ccc(S(=O)(=O)N2CCOC23CCNCC3)cc1 [Compound C0027]	233.2	72.2	313.9	–
CC(=O)c1ccc(S(=O)(=O)N2CCOC23CCN(CC2CC2)CC3)cc1 [Compound C0095M]	189.1	107.7	224.6	–
C=CCN1CCC2(CC1)OCCN2S(=O)(=O)c1ccc(OC)cc1 [Compound C0091M]	207.9	80.8	274.4	–
CCCCN1CCC2(CC1)OCCN2S(=O)(=O)c1ccc(C(C)=O)cc1 [Compound C0101M]	138.2	174.8	274.3	–
COc1ccc(S(=O)(=O)N2CCOC23CCN(CC2CC2)CC3)cc1 [Compound C0090M]	237.0	41.0	341.0	–
COc1ccc(S(=O)(=O)N2CCSC23CCNCC3)cc1 [S-C0027]	156.2	56.2	286.8	IL-1β Average % (±SEM) [1, 8]: 85.8 (1.3) %; IL-1β Average % (±SEM) [1, 9]: 81.9 (2.3) %; IL-1β Average % (±SEM) [1, 10]: 79.5 (2.4) %; IL-1β Average % (±SEM) [1, 11]: 86.8 (2.0) %; Maximum Antinociception (%) ([2]; 56 mg/kg): 70%; Time to Max. ([2]; 56 mg/kg): 30 min; Maximum Antinociception (%) ([2]; 100 mg/kg): 90%; Time to Max. ([2]; 100 mg/kg): 30 min; TNF-α Average % (±SEM) [3, 8]: 73.6 (3.8) %; TNF-α Average % (±SEM) [3, 9]: 72.7 (0.7) %; TNF-α Average % (±SEM) [3, 10]: 74.0 (1.7) %; TNF-α Average % (±SEM) [3, 11]: 77.7 (2.7) %; IL-6 Average % (±SEM) [4, 8]: 75.6 (1.5) %; IL-6 Average % (±SEM) [4, 9]: 77.4 (4.2) %; IL-6 Average % (±SEM) [4, 10]: 83.1 (2.1) %; IL-6 Average % (±SEM) [4, 11]: 81.0 (1.7) %
C[C@@H](NC(=O)[C@@H](N)Cc1ccc(O)cc1)C(=O)NCC(=O)N(C)[C@@H](Cc1ccccc1)C(=O)NCCO [DAMGO, reference compound]	168.5	53.2	266.1	–
O=[N+]([O-])c1ccc(S(=O)(=O)N2CCC3(CC2)NCCO3)cc1 [Compound C0040]	145.8	90.4	308.3	–
